In assay [1] the target is T1, rat intestinal isomaltase (Rattus norvegicus, UniProt P23739). Conditions: read-out: Apparent IC50, Isomaltase; rat intestinal disaccharidases; cited from earlier work.
In assay [2] the target is rat intestinal maltase. Conditions: read-out: Apparent IC50, Maltase; rat intestinal disaccharidases; cited from earlier work.
Assay [3] deals with intestinal α-glucosidases. Conditions: cited from earlier work.
Assay [4] has as its target recombinant human α-glucosidase GAA (Homo sapiens, UniProt P10253). In words: Inhibition of recombinant human α-glucosidase GAA. It is filed as biochemical.
The target of assay [5] is T2, β-glucosidase from Aspergillus niger (Aspergillus niger, UniProt A2RAL4).
T2 sequence (A2RAL4 20-860): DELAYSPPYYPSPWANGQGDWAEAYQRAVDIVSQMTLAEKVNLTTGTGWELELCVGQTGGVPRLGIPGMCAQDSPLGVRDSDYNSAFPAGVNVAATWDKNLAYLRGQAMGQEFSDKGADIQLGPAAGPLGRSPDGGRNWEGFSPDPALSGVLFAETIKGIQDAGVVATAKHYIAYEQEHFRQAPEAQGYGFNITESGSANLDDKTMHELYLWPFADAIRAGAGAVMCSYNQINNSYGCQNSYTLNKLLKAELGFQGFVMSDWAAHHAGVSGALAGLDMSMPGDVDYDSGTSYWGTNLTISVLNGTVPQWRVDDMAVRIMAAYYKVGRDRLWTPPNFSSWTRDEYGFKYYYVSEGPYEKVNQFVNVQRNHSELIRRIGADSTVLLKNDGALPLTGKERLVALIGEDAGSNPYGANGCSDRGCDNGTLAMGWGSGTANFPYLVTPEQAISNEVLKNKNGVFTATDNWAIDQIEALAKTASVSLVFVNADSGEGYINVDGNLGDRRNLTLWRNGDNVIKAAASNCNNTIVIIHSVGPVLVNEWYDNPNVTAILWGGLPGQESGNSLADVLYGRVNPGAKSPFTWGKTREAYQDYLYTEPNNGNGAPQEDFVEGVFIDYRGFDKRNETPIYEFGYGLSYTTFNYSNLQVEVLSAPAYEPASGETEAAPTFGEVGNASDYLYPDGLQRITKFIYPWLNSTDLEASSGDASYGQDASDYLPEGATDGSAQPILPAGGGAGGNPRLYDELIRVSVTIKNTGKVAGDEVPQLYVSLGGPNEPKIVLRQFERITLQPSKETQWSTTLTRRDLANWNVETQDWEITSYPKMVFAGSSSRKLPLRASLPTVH
In words: Inhibition of β-glucosidase from Aspergillus niger, β-p-NPG substrate. Conditions: read-out: Apparent IC50, A. niger β-glucosidase; pH 4.6, β-p-NPG substrate. It is filed as biochemical.

A further assay has as its target rat intestinal sucrase (Rattus norvegicus, UniProt P23739). Briefly: Inhibitory effects on rat intestinal α-glucosidases: sucrase. It is filed as biochemical.
Assay [6] has as its target T1, rat intestinal isomaltase. In words: Inhibitory effects on rat intestinal α-glucosidases: isomaltase. It is filed as biochemical.
In assay [7] the target is rat intestinal maltase. Briefly: Inhibitory effects on rat intestinal α-glucosidases: maltase. It is filed as biochemical. Conditions: read-out: Apparent IC50, Maltase; rat intestinal disaccharidases.
Setting [8] is: read-out: Apparent IC50, Sucrase, rat intestinal disaccharidases.
Where [9] appears, read: read-out: Apparent IC50, Isomaltase, rat intestinal disaccharidases.

Where two headings read alike, the source gives them in different places. Where only a bound is given, the exact number is not on record here.

T1 sequence (P23739 whole entry): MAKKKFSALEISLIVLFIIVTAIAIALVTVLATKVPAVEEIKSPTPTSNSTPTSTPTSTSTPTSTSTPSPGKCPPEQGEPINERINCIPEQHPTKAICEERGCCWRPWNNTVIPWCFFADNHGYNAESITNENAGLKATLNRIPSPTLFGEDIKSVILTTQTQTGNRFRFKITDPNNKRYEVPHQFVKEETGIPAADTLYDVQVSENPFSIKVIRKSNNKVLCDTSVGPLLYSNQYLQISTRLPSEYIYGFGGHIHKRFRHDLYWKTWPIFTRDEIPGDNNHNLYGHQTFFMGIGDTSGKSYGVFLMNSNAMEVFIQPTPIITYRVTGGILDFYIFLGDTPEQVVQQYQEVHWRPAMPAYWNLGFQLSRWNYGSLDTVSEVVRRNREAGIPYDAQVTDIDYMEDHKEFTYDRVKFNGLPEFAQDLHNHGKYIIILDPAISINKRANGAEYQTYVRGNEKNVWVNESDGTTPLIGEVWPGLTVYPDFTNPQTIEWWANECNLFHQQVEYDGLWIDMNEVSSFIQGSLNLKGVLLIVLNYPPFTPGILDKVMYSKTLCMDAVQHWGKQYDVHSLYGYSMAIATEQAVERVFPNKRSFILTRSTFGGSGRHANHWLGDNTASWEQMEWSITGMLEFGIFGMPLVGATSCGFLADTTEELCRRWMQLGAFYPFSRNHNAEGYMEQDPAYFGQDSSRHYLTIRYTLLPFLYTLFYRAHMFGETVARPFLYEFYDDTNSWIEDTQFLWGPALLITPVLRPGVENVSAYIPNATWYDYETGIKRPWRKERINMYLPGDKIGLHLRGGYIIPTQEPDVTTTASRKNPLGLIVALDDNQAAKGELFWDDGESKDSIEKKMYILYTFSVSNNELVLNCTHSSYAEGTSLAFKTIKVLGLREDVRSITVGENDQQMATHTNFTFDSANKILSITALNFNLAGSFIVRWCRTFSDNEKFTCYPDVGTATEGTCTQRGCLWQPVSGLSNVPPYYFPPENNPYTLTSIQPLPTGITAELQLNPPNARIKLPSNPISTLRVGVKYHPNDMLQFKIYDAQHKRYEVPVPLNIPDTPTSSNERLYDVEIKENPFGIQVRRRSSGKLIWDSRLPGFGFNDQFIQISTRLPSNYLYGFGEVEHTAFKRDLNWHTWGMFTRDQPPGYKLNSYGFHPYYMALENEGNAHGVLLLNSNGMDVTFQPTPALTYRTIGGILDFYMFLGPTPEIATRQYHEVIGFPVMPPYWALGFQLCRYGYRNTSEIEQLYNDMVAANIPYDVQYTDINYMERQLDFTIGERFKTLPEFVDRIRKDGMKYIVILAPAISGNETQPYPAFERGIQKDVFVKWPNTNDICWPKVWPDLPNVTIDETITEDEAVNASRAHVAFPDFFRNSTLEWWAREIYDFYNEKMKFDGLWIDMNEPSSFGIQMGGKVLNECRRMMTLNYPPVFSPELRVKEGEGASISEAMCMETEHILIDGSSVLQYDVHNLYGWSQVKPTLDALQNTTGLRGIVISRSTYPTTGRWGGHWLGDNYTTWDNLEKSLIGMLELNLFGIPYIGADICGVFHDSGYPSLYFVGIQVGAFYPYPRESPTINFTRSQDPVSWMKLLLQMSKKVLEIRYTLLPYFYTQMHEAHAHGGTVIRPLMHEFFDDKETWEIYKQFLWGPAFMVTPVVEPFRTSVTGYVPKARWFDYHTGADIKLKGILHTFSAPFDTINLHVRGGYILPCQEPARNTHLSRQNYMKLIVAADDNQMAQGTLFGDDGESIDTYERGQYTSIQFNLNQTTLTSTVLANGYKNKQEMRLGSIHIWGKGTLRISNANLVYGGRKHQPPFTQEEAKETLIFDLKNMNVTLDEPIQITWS
rat intestinal sucrase, sequence (P23739 whole entry): as above

For `O=S(=O)([O-])O[C@@H](CO)[C@H](O)C[S@+]1C[C@@H](O)[C@H](O)[C@H]1CO` [Compound 1, Salacinol], the IC50 (in assay [1]; on rat intestinal maltase [2]) was 5.2 µM in each case. In addition, the “type of inhibition (Lineweaver–Burk plots)” value in assay [3] is “competitive type of inhibition”.
With `OCC(CO)N[C@H]1C[C@](O)(CO)[C@@H](O)[C@H](O)[C@H]1O` [Voglibose], the Ki in assay [4] was 7.6 ± 0.8 µM.
Take 3'-epi-Neosalacinol [Compound 9]: the IC50 in assay [5] is greater than 1000 µM; at rat intestinal sucrase (setting [8]), 0.69 µM; in assay [6] (setting [9]), 0.58 µM; on rat intestinal maltase [7], 4.3 µM.
For 2'-epi-Neosalacinol [Compound 11], the IC50 was greater than 1000 µM in assay [5], greater than 100 µM in assay [6] (setting [9]) and greater than 100 µM at rat intestinal maltase [7].
On to 2'-epi-Salacinol [Compound 10], for which the IC50 in assay [5] was greater than 1000 µM; on rat intestinal sucrase (setting [8]) it was greater than 100 µM; in assay [6] (setting [9]), greater than 100 µM; at rat intestinal maltase [7], greater than 100 µM.
With 3'-epi-Salacinol [Compound 8], the IC50 in assay [5] was greater than 1000 µM; at rat intestinal sucrase (setting [8]) it was 19 µM; in assay [6] (setting [9]), 6.4 µM; on rat intestinal maltase [7], greater than 100 µM.
2', 3'-epi-Salacinol [Compound 12]: the IC50 in assay [5] is greater than 1000 µM; at rat intestinal sucrase (setting [8]), greater than 100 µM; in assay [6] (setting [9]) it was greater than 100 µM; on rat intestinal maltase [7], greater than 100 µM.
On to 2', 3'-epi-Neosalacinol [Compound 13], for which the IC50 in assay [5] was greater than 1000 µM; in assay [6] (setting [9]) it was 34 µM; at rat intestinal maltase [7] it was greater than 100 µM.
On to `[O-][C@@H](CO)[C@H](O)C[S@+]1C[C@@H](O)[C@H](O)[C@H]1CO` [Compound 2, neosalacinol, reference compound], for which, in assay [4], the Ki is 3.6 ± 0.3 µM. Besides, the IC50 at rat intestinal sucrase came to 3.6 µM; in assay [6], 0.45 µM; on rat intestinal maltase [7] it was 25 µM.

In general, IC50 refers to the concentration at which inhibition is half-maximal. A word on the Ki: it is the equilibrium dissociation constant of an inhibitor or competing ligand from its target.
